Where “and” joins values, the source holds several entries; their conditions need not be identical. Equal values may be shown once. Inconclusive results and toxic doses are left out.
Tested on: CD2F1 mice, intracerebral L1210 leukemia, survival T/C
Experiment: NCI In Vivo Anticancer Drug Screen. Data for tumor model L1210 Leukemia (intracerebral) in CD2F1 (CDF1) mice
Details: higher = longer survival
Procedure: The antitumor activity of compounds was measured in mice bearing transplantable tumors. Survival or tumor size were measured and the results are expressed as the measurement made in the treated group (T) divided by the measurement made in the vehicle treated control group (C). The tumor model used in this assay is L1210 Leukemia (intracerebral) in CD2F1 (CDF1) mice

[1] = endpoint: median survival time, dose: 8.0 mg/kg/injection, schedule: Q01DX009 (ip), vehicle: saline
[2] = endpoint: median survival time, dose: 16.0 mg/kg/injection, schedule: Q01DX009 (ip), vehicle: saline
[3] = endpoint: mean survival time, dose: 50.0 mg/kg/injection, schedule: Q01DX009 (ip), vehicle: saline
[4] = endpoint: mean survival time, dose: 100.0 mg/kg/injection, schedule: Q01DX009 (ip), vehicle: saline
[5] = endpoint: median survival time, dose: 100.0 mg/kg/injection, schedule: Q01DX009 (ip), vehicle: saline
[6] = endpoint: median survival time, dose: 200.0 mg/kg/injection, schedule: Q01DX009 (ip), vehicle: saline
[7] = endpoint: median survival time, dose: 400.0 mg/kg/injection, schedule: Q01DX009 (ip), vehicle: saline

CCC(=O)O[C@H]1CC[C@H]2[C@@H]3CCC4=CC(=O)CC[C@]4(C)[C@H]3CC[C@]12C
T/C (endpoint: median survival time, dose: 8.0 mg/kg/injection, schedule: Q01DX009 (ip), vehicle: saline with Tween-80): 121 % of control | T/C [1]: 109 % of control | T/C (endpoint: median survival time, dose: 16.0 mg/kg/injection, schedule: Q01DX009 (ip), vehicle: saline with Tween-80): 110 % of control | T/C [2]: 102 % of control | T/C (endpoint: median survival time, dose: 32.0 mg/kg/injection, schedule: Q01DX009 (ip), vehicle: saline with Tween-80): 118 % of control | T/C (endpoint: median survival time, dose: 32.0 mg/kg/injection, schedule: Q01DX009 (ip), vehicle: saline): 104 % of control | T/C (endpoint: median survival time, dose: 64.0 mg/kg/injection, schedule: Q01DX009 (ip), vehicle: saline with Tween-80): 118 % of control | T/C (endpoint: median survival time, dose: 128.0 mg/kg/injection, schedule: Q01DX009 (ip), vehicle: saline with Tween-80): 110 % of control | T/C (endpoint: median survival time, dose: 128.0 mg/kg/injection, schedule: Q01DX009 (ip), vehicle: saline): 224 % of control | T/C (endpoint: median survival time, dose: 256.0 mg/kg/injection, schedule: Q01DX009 (ip), vehicle: saline with Tween-80): 101 % of control | T/C (endpoint: median survival time, dose: 256.0 mg/kg/injection, schedule: Q01DX009 (ip), vehicle: saline): 120 % of control | T/C (endpoint: median survival time, dose: 512.0 mg/kg/injection, schedule: Q01DX009 (ip), vehicle: saline with Tween-80): 105 % of control | T/C (endpoint: median survival time, dose: 512.0 mg/kg/injection, schedule: Q01DX009 (ip), vehicle: saline): 116 % of control

COC1OC(CO)C(O)C(NC(=O)N(C)N=O)C1O (stereo unspecified)
T/C (endpoint: median survival time, dose: 0.5 mg/kg/injection, schedule: Q01DX009 (ip), vehicle: saline): 102 % of control | T/C (endpoint: median survival time, dose: 1.0 mg/kg/injection, schedule: Q01DX009 (ip), vehicle: saline): 107 % of control | T/C (endpoint: median survival time, dose: 2.0 mg/kg/injection, schedule: Q01DX009 (ip), vehicle: saline): 111 % of control | T/C (endpoint: median survival time, dose: 4.0 mg/kg/injection, schedule: Q01DX009 (ip), vehicle: saline): 111 % of control | T/C [1]: 116 % of control | T/C [2]: 102 % of control

CN(N=O)C(=O)N[C@@H](C=O)[C@@H](O)[C@H](O)[C@H](O)CO
T/C (endpoint: mean survival time, dose: 50.0 mg/kg/injection, schedule: Q01DX005 (ip), vehicle: saline): 100 % of control | T/C [3]: 102 % of control | T/C (endpoint: mean survival time, dose: 100.0 mg/kg/injection, schedule: Q01DX005 (ip), vehicle: saline): 102 % of control | T/C [4]: 100 % of control | T/C (endpoint: mean survival time, dose: 200.0 mg/kg/injection, schedule: Q01DX005 (ip), vehicle: saline): 104 % of control | T/C (endpoint: mean survival time, dose: 200.0 mg/kg/injection, schedule: Q01DX009 (ip), vehicle: saline): 100 % of control | T/C (endpoint: mean survival time, dose: 400.0 mg/kg/injection, schedule: Q01DX009 (ip), vehicle: saline): 95 % of control | T/C (endpoint: median survival time, dose: 75.0 mg/kg/injection, schedule: Q01DX001 (ip), vehicle: DMSO): 102 % of control | T/C (endpoint: median survival time, dose: 75.0 mg/kg/injection, schedule: Q01DX001 (ip), vehicle: other): 103 % of control | T/C (endpoint: median survival time, dose: 75.0 mg/kg/injection, schedule: Q01DX001 (oral), vehicle: saline): 109 % of control | T/C (endpoint: median survival time, dose: 150.0 mg/kg/injection, schedule: Q01DX001 (ip), vehicle: DMSO): 114 % of control | T/C (endpoint: median survival time, dose: 150.0 mg/kg/injection, schedule: Q01DX001 (ip), vehicle: other): 107 % of control | T/C (endpoint: median survival time, dose: 150.0 mg/kg/injection, schedule: Q01DX001 (oral), vehicle: saline): 100 % of control | T/C (endpoint: median survival time, dose: 300.0 mg/kg/injection, schedule: Q01DX001 (ip), vehicle: DMSO): 114 % of control | T/C (endpoint: median survival time, dose: 300.0 mg/kg/injection, schedule: Q01DX001 (ip), vehicle: other): 109 % of control | T/C (endpoint: median survival time, dose: 300.0 mg/kg/injection, schedule: Q01DX001 (oral), vehicle: saline): 113 % of control | T/C (endpoint: median survival time, dose: 500.0 mg/kg/injection, schedule: Q01DX001 (ip), vehicle: DMSO): 112 % of control | T/C (endpoint: median survival time, dose: 500.0 mg/kg/injection, schedule: Q01DX001 (ip), vehicle: other): 103 % of control | T/C (endpoint: median survival time, dose: 500.0 mg/kg/injection, schedule: Q01DX001 (oral), vehicle: saline): 100 % of control

CCCCCCCCCCCCCCCCCC(=O)Nc1ccn(C2OC(CO)C(O)C2O)c(=O)n1 (stereo unspecified)
T/C (endpoint: median survival time, dose: 25.0 mg/kg/injection, schedule: Q01DX009 (ip), vehicle: saline with Tween-80): 188 % of control | T/C (endpoint: median survival time, dose: 100.0 mg/kg/injection, schedule: Q01DX009 (ip), vehicle: saline with Tween-80): 121 % of control

O=C1C=CN(C2OC(CO)C(O)C2O)C(=O)C1 (stereo unspecified)
T/C (endpoint: mean survival time, dose: 33.0 mg/kg/injection, schedule: Q01DX009 (ip), vehicle: saline): 150 % of control | T/C [5]: 116 % of control | T/C [6]: 105 % of control | T/C [7]: 107 % of control

O=C1C(N2CC2)=C(N2CCCC(O)C2)C(=O)C(N2CC2)=C1N1CCCC(O)C1 (stereo unspecified)
T/C (endpoint: mean survival time, dose: 2.0 mg/kg/injection, schedule: Q04DX003 (ip), vehicle: saline): 103 % of control and 110 % of control | T/C (endpoint: mean survival time, dose: 4.0 mg/kg/injection, schedule: Q04DX003 (ip), vehicle: saline): 121 % of control and 110 % of control | T/C (endpoint: mean survival time, dose: 6.0 mg/kg/injection, schedule: Q04DX003 (ip), vehicle: saline): 114 % of control | T/C (endpoint: mean survival time, dose: 8.0 mg/kg/injection, schedule: Q04DX003 (ip), vehicle: saline): 114 % of control

N[C@H](C(=O)O)[C@H]1ON=C(Cl)[C@@H]1O
T/C (endpoint: mean survival time, dose: 256.0 mg/kg/injection, schedule: Q01DX009 (ip), vehicle: saline): 118 % of control | T/C (endpoint: mean survival time, dose: 512.0 mg/kg/injection, schedule: Q01DX009 (ip), vehicle: saline): 98 % of control | T/C (endpoint: mean survival time, dose: 1024.0 mg/kg/injection, schedule: Q01DX009 (ip), vehicle: saline): 98 % of control

Nc1ncnc2c1ncn2C1OC(COP(=O)(O)O)C(O)C1O (stereo unspecified)
T/C [5]: 109 % of control and 110 % of control and 112 % of control | T/C [6]: 97 % of control and 104 % of control and 115 % of control | T/C [7]: 96 % of control and 101 % of control and 117 % of control | T/C (endpoint: median survival time, dose: 800.0 mg/kg/injection, schedule: Q01DX009 (ip), vehicle: saline): 101 % of control and 108 % of control

F
T/C (endpoint: median survival time, dose: 16.0 mg/kg/injection, schedule: Q01DX005 (ip), vehicle: saline): 100 % of control and 104 % of control | T/C (endpoint: median survival time, dose: 32.0 mg/kg/injection, schedule: Q01DX005 (ip), vehicle: saline): 88 % of control and 105 % of control

C=CCN(C)N=Nc1ccc(C(N)=O)cc1
T/C (endpoint: mean survival time, dose: 25.0 mg/kg/injection, schedule: Q01DX009 (ip), vehicle: Klucel (hydroxypropylcellulose) (HPC)): 98 % of control | T/C (endpoint: mean survival time, dose: 50.0 mg/kg/injection, schedule: Q01DX009 (ip), vehicle: Klucel (hydroxypropylcellulose) (HPC)): 108 % of control | T/C (endpoint: mean survival time, dose: 100.0 mg/kg/injection, schedule: Q01DX009 (ip), vehicle: Klucel (hydroxypropylcellulose) (HPC)): 118 % of control | T/C (endpoint: mean survival time, dose: 200.0 mg/kg/injection, schedule: Q01DX009 (ip), vehicle: Klucel (hydroxypropylcellulose) (HPC)): 118 % of control

COC(COC(=O)N1CCN(C=O)CC1)C1=C(N2CC2)C(=O)C(C)=C(N2CC2)C1=O (stereo unspecified)
T/C (endpoint: median survival time, dose: 0.75 mg/kg/injection, schedule: Q01DX009 (ip), vehicle: saline): 115 % of control | T/C (endpoint: median survival time, dose: 1.5 mg/kg/injection, schedule: Q01DX009 (ip), vehicle: saline): 105 % of control | T/C (endpoint: median survival time, dose: 6.0 mg/kg/injection, schedule: Q01DX009 (ip), vehicle: saline): 160 % of control

CN(C)/N=N/c1nc[nH]c1C(N)=O
T/C (endpoint: mean survival time, dose: 20.0 mg/kg/injection, schedule: Q01DX007 (ip), vehicle: DMSO): 100 % of control | T/C (endpoint: mean survival time, dose: 20.0 mg/kg/injection, schedule: Q01DX007 (ip), vehicle: other): 106 % of control | T/C (endpoint: mean survival time, dose: 25.0 mg/kg/injection, schedule: Q01DX009 (ip), vehicle: saline): 113 % of control | T/C (endpoint: mean survival time, dose: 40.0 mg/kg/injection, schedule: Q01DX007 (ip), vehicle: DMSO): 103 % of control | T/C (endpoint: mean survival time, dose: 40.0 mg/kg/injection, schedule: Q01DX007 (ip), vehicle: other): 106 % of control | T/C [3]: 111 % of control | T/C (endpoint: mean survival time, dose: 80.0 mg/kg/injection, schedule: Q01DX007 (ip), vehicle: DMSO): 116 % of control | T/C (endpoint: mean survival time, dose: 80.0 mg/kg/injection, schedule: Q01DX007 (ip), vehicle: other): 107 % of control | T/C [4]: 111 % of control | T/C (endpoint: mean survival time, dose: 160.0 mg/kg/injection, schedule: Q01DX007 (ip), vehicle: DMSO): 121 % of control | T/C (endpoint: mean survival time, dose: 160.0 mg/kg/injection, schedule: Q01DX007 (ip), vehicle: other): 121 % of control | T/C (endpoint: mean survival time, dose: 320.0 mg/kg/injection, schedule: Q01DX007 (ip), vehicle: DMSO): 103 % of control | T/C (endpoint: mean survival time, dose: 320.0 mg/kg/injection, schedule: Q01DX007 (ip), vehicle: other): 112 % of control | T/C (endpoint: median survival time, dose: 16.0 mg/kg/injection, schedule: Q01DX005 (ip), vehicle: saline with Tween-80): 104 % of control | T/C (endpoint: median survival time, dose: 32.0 mg/kg/injection, schedule: Q01DX005 (ip), vehicle: saline with Tween-80): 120 % of control | T/C (endpoint: median survival time, dose: 64.0 mg/kg/injection, schedule: Q01DX005 (ip), vehicle: saline with Tween-80): 110 % of control | T/C (endpoint: median survival time, dose: 128.0 mg/kg/injection, schedule: Q01DX005 (ip), vehicle: saline with Tween-80): 113 % of control

Reference: PubChem BioAssay AID260 (DTP/NCI, 2004)
